This note sets out measurements from patent US7534766B2, “Glucuronide metabolites and epimers thereof of tigecycline” (Wyeth, priority 2004, dated 2009).

A short description of data set [1]: Tigecycline metabolites identified in CD-1 mouse serum and urine and rabbit serum samples (LC/MS). Format: in vivo. How it is done: The column temperature was 25° C. The flow rate was 0.2 mL/min. […] Gradient 1 was used for metabolite identification (qualitative analysis).
LC/MS analysis was conducted on extracts of serum and from CD-1 mice and rabbits, and on urine from CD-1 mice. The mass spectral data for tigecycline and its metabolites are discussed below.

Data set [2] can be described thus: LC/MS detection of tigecycline metabolites in CD-1 mouse serum and urine after intravenous tigecycline. As to the method:
Fifteen male CD-1 mice, with an average weight of 31.3 g at the time of dosing, were used. Animals were given food and water ad libitum. Mice in the 0.5 and 2 hour blood collection groups were housed in standard cages, while those in the 4 hour blood collection group were housed in metabolism cages for the collection of urine. Mice were dosed by the Bioresources Department at Wyeth Research, Collegeville, Pa.
For mice and rabbits, the intravenous dosing solutions was prepared by dissolving 50 mg of tigecycline in 5.0 mL of 0.9% sterile saline solution to make a working stock solution. The working stock solution was diluted with 0.9% sterile saline solution to 0.5 mg/mL for mice and 4 mg/mL for rabbits. The mouse dose (5 mg/kg, 10 mL/kg) was administered as a bolus injection via the tail vein. The rabbit dose (4 mg/kg, 1 mL/kg) was administered as a bolus injection via the marginal vein of the ear.
For mice (n=5/time point), blood (approximately 0.7 mL) was collected by cardiac puncture at 0.5, 2 and 4 hours following administration of tigecycline. For rabbits, blood (approximately 7 mL) was collected via the ear vein at 0.5, 2 and 6 hours following the tigecycline dose. Serum was separated following clot formation at room temperature and centrifugation for 15 minutes at 4° C. and 3000 rpm. The serum was transferred to a fresh tube and was stored at approximately −70° C. until analysis as described below under “Serum Sample Preparation for LC/MS Analysis. In addition, urine was collected from mice in the 4 hour blood collection group and was stored at approximately −70° C. until analysis, as described below under “Urine Sample Preparation for LC/MS Analysis.”
Mouse urine was thawed and an aliquot (1 mL) transferred to a fresh tube. The sample was centrifuged at 14,000 rpm and room temperature for 10 minutes using a Model 5415C Eppendorf centrifuge (Brinkmann Instruments, Westbury, N.Y.) to remove any particulates. The sample was then transferred to a fresh tube and was analyzed by LC/MS, as described below under “Liquid Chromatography/Mass Spectrometry Analysis.”.
Mouse and rabbit serum samples were pooled at each collection time and analyzed for tigecycline, its epimer, tigecycline glucuronide (M7 and its epimer M6), 9-aminominocycline (M3) and N-acetyl-9-aminominocycline (M9 and its epimer M8). Aliquots of serum (500 μL) were transferred to new tubes and deuterated tigecycline (30 ng/mL final concentration) was added as an internal standard (quantitative analysis only). EDTA (40 μL of 0.5 M EDTA) was added to each sample and the samples vortex mixed. Acetonitrile (500 μL) was added to each sample, samples were vortex mixed and denatured protein separated by centrifugation at 14,000 rpm and room temperature for 10 minutes using a Model 5415C Eppendorf centrifuge (Brinkmann Instruments). The supernatant was transferred to a fresh tube and the solvent evaporated under a stream of nitrogen using a Turbovap Model LV evaporator (Caliper Life Sciences, Hopkinton, Mass.).
The HPLC system used for mass spectrometric analysis was a Waters Alliance Model 2695 HPLC system (Waters Corp., Milford, Mass.). It was equipped with a built-in autosampler and a Model 996 diode array UV detector. The UV detector was set to monitor 210-400 nm. Separations for metabolite characterization were accomplished on a Phenomenex Luna C18(2) column (150×2.1 mm, 5 μm) (Phenomenex, Torrance, Calif.) equipped with a Keystone Uniguard C18 guard column (10×2.1 mm) (Thermo Electron Corp., Bellefonte, Pa.). The column temperature was 25° C. The flow rate was 0.2 mL/min. Mobile phase A was 10 mM ammonium acetate in water and mobile phase B was acetonitrile.

For data set [3] the following is noted: male, human, in vivo. How it is done: An open-label, inpatient, multiple-dose tigecycline, single-dose [^14C]tigecycline metabolic disposition and mass balance study was performed in six healthy male volunteers. The clinical protocol called for twelve subjects. Of these twelve, six received the radioactive dose (subjects 1, 4, 5, 6, 7, and 8 with subject 8 later dropping out of the study.) Eligible subjects were selected based on inclusion/exclusion criteria, medical history, physical examination and additional procedures outlined in the study protocol. Each subject received a 100 mg loading dose on the morning of Day 1, followed by a 50 mg maintenance dose every 12 hours for an additional 5 doses. On the morning of study Day 4, six subjects received a single 50 mg dose of [^14C]tigecycline (50 μCi). Each tigecycline dose was administered via a 30-minute intravenous infusion.
Serum samples were collected for metabolite profiling prior to tigecycline dosing and 1, 4, 8, 24 and 48 hours following the [^14C]-labeled dose. For metabolite profiling, urine samples were collected at 0-4, 4-8, 8-24 and 24-48 hours and fecal samples were collected up to 48 hours following the [^14C]-labeled dose. Serum and urine samples, and fecal homogenates were shipped on dry ice to the Biotransformation Division of Drug Safety and Metabolism, Wyeth Research, Collegeville, Pa. The details of the sample collection and sample storage are described in the mass balance portion of the study. The 24-48 hour urine and fecal samples for subject #6 were incomplete since the subject withdrew from the study. While samples from this subject were used for metabolite profiling, the samples were not included in the mass balance calculations.
Urine samples for metabolite profiling were extracted, as discussed below, using a method previously developed and used for rat and dog urine samples. Urine samples that had been collected at various intervals up to 48 hours following the dose of [^14C]tigecycline were thawed on ice prior to extraction. Aliquots (1 mL) of the individual urine samples were transferred to clean tubes and 0.2 M EDTA, for a final concentration of 40 mM EDTA, was added. […] Samples were mixed, centrifuged and the supernatants analyzed for metabolites by HPLC radiochromatography with selected samples also analyzed by LC/MS.
HPLC analyses were performed using a Waters 2695 Alliance Separation Module (Waters Corp., Milford, Mass.), a Waters Model 2487 dual wavelength UV absorbance detector, set to monitor 350 nm, and was in-line with a Gilson 215 liquid handler (Gilson, Middleton, Wis.) equipped to collect fractions at 20 second intervals. Fractions were collected into 96-well deep well Luma plates and analyzed using TopCount NXT. The autosampler temperature was set to 4° C. […]

Data set [4] in a line: LC/MS detection of tigecycline and its metabolites in humans, dogs and/or rats. Particulars: LC/MS of human serum, urine, feces and rat and dog plasma and urine.
Description: Characterization of the tigecycline metabolites in human serum, urine and feces, and rat and dog plasma and urine was performed using LC/MS analysis (Table 5).

Entries after “also recorded” stand apart in the source; their conditions may differ.

As for `CN(C)c1cc(NC(=O)CNC(C)(C)C)c(O)c2c1C[C@H]1C[C@H]3C(N(C)C)C(O[C@@H]4O[C@H](C(=O)O)[C@@H](O)[C@H](O)[C@H]4O)=C(C(N)=O)C(=O)[C@@]3(O)C(O)=C1C2=O` (stereo in doubt) [Metabolite M7, tigecycline glucuronide], the “Species and matrix in which identified” value in data set [1] (in vivo, iv) is “R-S, M-S, M-U”. Further, the “observed in mouse urine by LC/MS” value in data set [2] (mouse, in vivo, iv, 5 mg/kg) is recorded as “detected”. Further, the “percent of the urinary radioactivity” value in data set [3] is “approximately 20%”.
Consider `CC(C)(C)NCC(=O)O` [Metabolite M3a, t-butylaminoacetic acid], for which the “percent of the radioactivity in urine” value in data set [3] is 15-37%. The “Species in which detected” value in data set [4] is “R, D, H”.
As to `CN(C)c1cc(NC(=O)CNC(C)(C)C)c(O)c2c1C[C@H]1C[C@H]3[C@@H](N(C)C)C(O[C@@H]4O[C@H](C(=O)O)[C@@H](O)[C@H](O)[C@H]4O)=C(C(N)=O)C(=O)[C@@]3(O)C(O)=C1C2=O` [Metabolite M6, epimer of tigecycline glucuronide], the “Species and matrix in which identified” value in data set [1] (in vivo, iv) was “R-S, M-S, M-U”. In addition, the “observed in mouse urine by LC/MS” value in data set [2] (mouse, in vivo, iv, 5 mg/kg) is given as “detected”. For the same compound, the “percent of the radioactivity in urine” value in data set [3] was “less than 1%”.
For `CN(C)c1cc(NC(=O)CNC(C)(C)C)c(O)c2c1C[C@H]1C[C@H]3[C@H](N(C)C)C(O)=C(C(N)=O)C(=O)[C@@]3(O)C(O)=C1C2=O` [Tigecycline], the “Species and matrix in which identified” value in data set [1] (single IV tigecycline dose, LC/MS) was “R-S, M-S, M-U”. Further, the “observed in mouse serum by LC/MS” value in data set [2] (male CD-1 mice, 5 mg/kg IV tigecycline, 0.5, 2, 4 hours, 5 mg/kg) was “observed; also recorded: detected”. In data set [2] (male CD-1 mice, 5 mg/kg IV tigecycline, urine 0-4 hours), the “observed in mouse urine by LC/MS” value is “detected”. Moreover, in data set [4], the “Species in which detected” value is “R, D, H”.
